From patent publication US5364885A, “Reduction of hair growth” (priority 1992, dated 1994)
Counter-ions that a name gives are not always drawn. Like-named read-outs stand apart in the source and are kept apart here.

Tests used:
[1] = system: hamster flank organ hair growth; experiment: Inhibition of hair growth: hamster flank organ hair mass after thirteen topical applications; format: in vivo, male intact Golden Syrian hamsters; conditions: 13 applications; for inhibition at 5 % strength / inhibition at 10 % strength / inhibition at 20 % strength / inhibition at 30 % strength: Mesocricetus auratus, pH 7-8, read-out: % Inhibition (± SEM)
Description: A vehicle or carrier was prepared having the following composition:
A group of male intact Golden Syrian hamsters was provided. These animals were considered acceptable models for human beard hair growth in that they display oval shaped flank organs, one on each side, each about 8 mm. in major diameter, which grow thick black and coarse hair similar to human beard hair. These organs produce hair in response to androgens in the hamster. The flank organs of each hamster were depilated by applying a thioglycolate based chemical depilatory (Surgex), and to one organ of each animal was applied 10-25 μl. of vehicle alone once a day, while to the other organ of each animal was applied an equal amount of vehicle containing the analog. After thirteen applications (one application per day for five days a week), the flank organs were shaved and the amount of recovered hair (hair mass) from each was weighed. Percent-reduction of hair growth was calculated by subtracting the hair mass (mg) value of the test compound treated side from the hair mass value of the vehicle treated side; the delta value obtained was then divided by the hair mass value of the vehicle treated side, and the resultant number was multiplied by 100.

hamster flank organ = conditions: topical; cited from earlier work
animal sebaceous glands = conditions: female vs male; cited from earlier work
hair growth = conditions: intact males; Table 3, Group VI vs. Group X; cited from earlier work
sebum excretion = conditions: topical, cited from earlier work
[2] = 5% by weight, 10-25 μl once a day, pH 7-8
[3] = 10% by weight, 10-25 μl once a day, pH 7-8
[4] = 20% by weight, 10-25 μl once a day, pH 7-8
[5] = 30% by weight, 10-25 μl once a day, pH 7-8
[6] = 5% by weight, 10-25 μl once a day, vs vehicle treated side
[7] = 10% by weight, 10-25 μl once a day, vs vehicle treated side
[8] = 20% by weight, 10-25 μl once a day, vs vehicle treated side
[9] = 30% by weight, 10-25 μl once a day, vs vehicle treated side

| Structure (SMILES) | Hamster Flank Organ Hair Mass, Treated (± SEM) [1, 2] | Hamster Flank Organ Hair Mass, Treated (± SEM) [1, 3] | Hamster Flank Organ Hair Mass, Treated (± SEM) [1, 4] | Hamster Flank Organ Hair Mass, Treated (± SEM) [1, 5] | inhibition at 5 % strength [1, 6] [%] | inhibition at 10 % strength [1, 7] [%] | inhibition at 20 % strength [1, 8] [%] | inhibition at 30 % strength [1, 9] [%] | reduction in hair growth of the hamster flank organ (hamster flank organ) | reduction in the size of the flank organ (hamster flank organ) | Hamster Flank Organ Hair Mass, Treated (± SEM) ([1]; 10% comparison composition, pH 4.0) | % Inhibition (± SEM) ([1]; 10% comparison composition, vs vehicle treated side, pH 4.0) [%] | inhibition of testosterone metabolism and lipogenesis in sebaceous glands (animal sebaceous glands) | effect on inhibition of hair growth (hair growth) | reducing sebum excretion rates (sebum excretion; females) | reducing sebum excretion rates (sebum excretion; males) |
| --- | --- | --- | --- | --- | --- | --- | --- | --- | --- | --- | --- | --- | --- | --- | --- | --- |
| CC(C)(CO)C(O)C(=O)NCCCO (racemic) [DL-PTYA, D, or DL, Pantothenyl alcohol] | 2.670 ± .23 mg | 1.490 ± .30 mg | 1.450 ± .21 mg | .708 ± .13 mg | -8.28 ± 7.51 | 40.3 ± 7.35 | 51.1 ± 7.49 | 70.8 ± 5.95 | – | – | – | – | – | – | – | – |
| CCC[C@]1(O)CC[C@H]2[C@@H]3CCC4=CC(=O)CC[C@]4(C)[C@H]3CC[C@@]21C [17β-hydroxy-17α-propylandrost-4-en-3-one] | – | – | – | – | – | – | – | – | substantial reduction in hair growth | reduction in the size of the flank organ | – | – | – | – | – | – |
| CC(C)(CO)[C@@H](O)C(=O)NCCCO [D-PTYA, D, or DL, Pantothenyl alcohol] | 1.069 ± .15 mg | 1.095 ± .32 mg | .899 ± .30 mg | 1.069 ± .26 mg | 55.9 ± 4.32 | 48.3 ± 11 | 31.4 ± 13.8 | 34.8 ± 8.49 | – | – | – | – | – | – | – | – |
| NCCC[C@](N)(C(=O)O)C(F)F [DFMO, α-difluoromethyl ornithine, reference compound] | – | – | – | – | – | – | – | – | – | – | .631 ± .12 mg | 66.10 ± 7.05 | – | – | – | – |
| CC(C)(CO)[C@@H](O)C(=O)NCCC(=O)O [PTA, DPantothenic acid hemicalcium salt] | .738 ± .13 mg | .424 ± .11 mg | .270 ± .12 mg | .160 ± .06 mg | 67.3 ± 5.81 | 71.3 ± 8.96 | 85.8 ± 5.75 | 92.7 ± 2.76 | – | – | – | – | – | – | – | – |
| CC(C)(CO)[C@H](O)C(=O)NCCC(=O)[O-].[Na+] [PTAss, D-Pantothenic acid monosodium salt] | .644 ± .15 mg | .364 ± .10 mg | .500 ± .10 mg | .396 ± .95 mg | 72.6 ± 5.18 | 80.1 ± 4.38 | 74.2 ± 4.83 | 79.8 ± 4.75 | – | – | – | – | – | – | – | – |
| CC(=O)[C@H]1CC[C@H]2[C@@H]3CCC4=CC(=O)CC[C@]4(C)[C@H]3CC[C@]12C [progesterone] | – | – | – | – | – | – | – | – | – | – | – | – | effective in the female but not in the male | doubtful | effective in reducing sebum excretion rates in females | without effect in males |
